# Data from US20220168392A1 (priority 2019, published 2022).
# Square brackets hold non-standard residues; d marks the D form. * marks the point of attachment. 2Nal = N[C@@H](Cc1ccc2ccccc2c1)C(=O)O; Propionyl = CCC(=O)*; Sar = CNCC(=O)O
# Tests used:
# [1] = system: CD2F1 male mice exposed to supra-lethal TBI; assay: Survival and recovery from gastrointestinal injury at supra-lethal TBI; type: in vivo, mouse
# Description: Data are expressed as mean±Standard error of mean (SEM). Irradiated TPOm group compared with saline treated group, statistical significance by Student T test (p≤0.0001)
# Bacterial translocation was determined as bacterial load in liver and spleen tissue as a result of radiation injury to the intestines and was quantified by real-time polymerase chain reaction (PCR) using the 16S rRNA gene consensus sequence. Naïve jejunum serves as a positive control and naïve spleen and liver serve as negative controls/baseline values. Data are expressed as mean±Standard error of mean (SEM). Irradiated TPOm group compared with saline treated group, statistical significance by Student T test (p≤0.0001).
# Data are expressed as mean±Standard error of mean (SEM). Irradiated TPOm group compared with saline treated group, statistical significance by Student T test (p≤0.0001). Serum amaloyd A (SAA) and pro-calcitonin (PCT), sepsis markers, were both measured by ELISA.
# Jejunum samples were collected at days 1, 3, 7, 9 post-TBI. Representative sections were stained with H&E. There was a 100% increased survival in the RWJ-800088 treated mice compared to the saline treated animals (FIG. 9A—Kaplan Meier plot).
# [2] = system: subjects with cancer receiving platinum-based chemotherapy; assay: Study NAP1002: cancer patients receiving platinum-based chemotherapy; type: in vivo, human
# Description: In the second randomized, double-blind Phase 1 study (NAP1002), 46 subjects with cancer receiving platinum-based chemotherapy were enrolled into 3 cohorts: 12 subjects received 1.5 μg/kg RWJ-800088, 12 subjects received 2.25 μg/kg, 10 subjects received 3 μg/kg, and 12 subjects received placebo within 2 hours before administration of platinum-based chemotherapy on Day 1 of the first of 2 chemotherapy cycles. There was a 21-day interval between each chemotherapy cycle.
# [3] = system: CD21F1 male mice exposed to TBI; assay: Dose reduction factor (DRF) and long-term survival study after TBI; type: in vivo, mouse
# From the text: Methods: CD21F1 male mice were used in a DRF (dose reduction factor) study to determine LD50/30 for animals administered with RWJ-800088 or it's vehicle (saline). This included irradiating cohorts of 24 animals at various total body irradiation (TBI) doses (Saline: 7.5, 8.0, 8.5, 9.0, 9.5, and 10 Gy; RWJ-800088: 10.5, 11.0, 11.5, 11.75, 12, and 12.5 Gy). Following the 30 day survival study, surviving animals were monitored for up to 1 year with planned collection points at 6 months and 1 year.
# RWJ-800088 administration timing and doses: RWJ-800088 was administered […] at a dose of 1 mg/kg 24 h prior to irradiation.
# [4] = Group 7, 10.5 Gy, 1 mg/kg 24 h prior to irradiation
# [5] = Group 9, 11.5 Gy, 1 mg/kg 24 h prior to irradiation
# [6] = Group 12, 12.5 Gy, 1 mg/kg 24 h prior to irradiation
substance,measurement,setting,value
methoxypolyethyleneglycol20000-propionyl-L-Isoleucyl-L-Glutamyl-Glycyl-L-Prolyl-L-Threonyl-L-Leucyl-L-Arginyl-L-Glutaminyl-L-2-Naphthylalanyl-L-Leucyl-L-Alanyl-L-Alanyl-L-Arginyl-Sarcosyl-Ne-(methoxypolyethyleneglycol20000-propionyl-L-Isoleucyl-L-Glutamyl-Glycyl-L-Prolyl-L-Threonyl-L-Leucyl-L-Arginyl-L-Glutaminyl-L-2-Naphthylalanyl-L-Leucyl-L-Alanyl-L-Alanyl-L-Arginyl-Sarcosyl-)-Lysinamide ({mPEG 20 kDa-Propionyl}-IEGPTLRQ[2Nal]LAAR[Sar]K-NH2; also: dimer: second identical mPEG-propionyl chain on Lys Nε of C-terminal lysinamide) [RWJ-800088],bacterial translocation to the liver and spleen,[1]; 1 mg/kg 24 hours prior to TBI (12.5 Gy per FIG. 10 legend),significantly reduced
same,number of viable crypts in jejunum,"[1]; 11 Gy, 1 mg/kg 24 h prior to TBI (FIG. 9C)",significant increase
same,increased survival compared to saline treated animals,"[1]; 11 Gy, 1 mg/kg 24 h prior to TBI, 8 mice/group/time point (FIG. 9A)",100%
same,"circulating sepsis biomarkers, serum amyloid A and procalcitonin","[1]; nine days post-TBI 11 Gy, 1 mg/kg 24 hours prior to TBI",significant reduction
same,nadir and peak mean platelet counts vs placebo,[2]; 1.5 μg/kg,similar
same,day up to which mean platelet counts continued to decline,"[2]; 1.5 μg/kg, each cycle",15 days
same,"platelet nadir and peak platelet counts, fold higher relative to placebo",[2]; 3 μg/kg,approximately 2 fold
same,day of peak mean platelet counts,"[2]; 3.0 μg/kg, both cycles",15 days
same,serious adverse event of thrombocythemia (number),"[2]; 1.5, 2.25, and 3 μg/kg",1
same,tolerability,"[2]; 1.5, 2.25, and 3 μg/kg with platinum-based chemotherapy",well-tolerated
same,day on which mean platelet counts were lowest,"[2]; 2.25 and 3.0 μg/kg, each cycle",10 days
same,"nadir and peak platelet counts, fold higher than placebo",[2]; 2.25 or 3.0 μg/kg,approximately 2 fold
same,"Maximum Platelet Counts, GMR (Active/Placebo)","[2]; Across cycles, 1.5 μg/kg",1.0
same,"Maximum Platelet Counts, Geometric Mean","[2]; Across cycles, 1.5 μg/kg",374760 µL⁻¹
same,"Minimum Platelet Counts, GMR (Active/Placebo)","[2]; Across cycles, 1.5 μg/kg",0.6
same,"Minimum Platelet Counts, Geometric Mean","[2]; Across cycles, 1.5 μg/kg",34570 µL⁻¹
same,"Maximum Platelet Counts, GMR (Active/Placebo)","[2]; Across cycles, 2.25 μg/kg",1.6
same,"Maximum Platelet Counts, Geometric Mean","[2]; Across cycles, 2.25 μg/kg",574270 µL⁻¹
same,"Minimum Platelet Counts, GMR (Active/Placebo)","[2]; Across cycles, 2.25 μg/kg",2.7
same,"Minimum Platelet Counts, Geometric Mean","[2]; Across cycles, 2.25 μg/kg",165790 µL⁻¹
same,"Maximum Platelet Counts, GMR (Active/Placebo)","[2]; Across cycles, 3.0 μg/kg",1.8
same,"Maximum Platelet Counts, Geometric Mean","[2]; Across cycles, 3.0 μg/kg",662940 µL⁻¹
same,"Minimum Platelet Counts, GMR (Active/Placebo)","[2]; Across cycles, 3.0 μg/kg",2.2
same,"Minimum Platelet Counts, Geometric Mean","[2]; Across cycles, 3.0 μg/kg",134260 µL⁻¹
same,"Maximum Platelet Counts, GMR (Active/Placebo)","[2]; Cycle 1, 1.5 μg/kg",1.1
same,"Maximum Platelet Counts, Geometric Mean","[2]; Cycle 1, 1.5 μg/kg",329180 µL⁻¹
same,"Minimum Platelet Counts, GMR (Active/Placebo)","[2]; Cycle 1, 1.5 μg/kg",0.5
same,"Minimum Platelet Counts, Geometric Mean","[2]; Cycle 1, 1.5 μg/kg",46800 µL⁻¹
same,"Maximum Platelet Counts, GMR (Active/Placebo)","[2]; Cycle 1, 2.25 μg/kg",1.9
same,"Maximum Platelet Counts, Geometric Mean","[2]; Cycle 1, 2.25 μg/kg",564360 µL⁻¹
same,"Minimum Platelet Counts, GMR (Active/Placebo)","[2]; Cycle 1, 2.25 μg/kg",2.3
same,"Minimum Platelet Counts, Geometric Mean","[2]; Cycle 1, 2.25 μg/kg",217590 µL⁻¹
same,"Maximum Platelet Counts, GMR (Active/Placebo)","[2]; Cycle 1, 3.0 μg/kg",2.1
same,"Maximum Platelet Counts, Geometric Mean","[2]; Cycle 1, 3.0 μg/kg",642690 µL⁻¹
same,"Minimum Platelet Counts, GMR (Active/Placebo)","[2]; Cycle 1, 3.0 μg/kg",2.0
same,"Minimum Platelet Counts, Geometric Mean","[2]; Cycle 1, 3.0 μg/kg",188250 µL⁻¹
same,"Maximum Platelet Counts, GMR (Active/Placebo)","[2]; Cycle 2, 1.5 μg/kg",0.9
same,"Maximum Platelet Counts, Geometric Mean","[2]; Cycle 2, 1.5 μg/kg",294150 µL⁻¹
same,"Minimum Platelet Counts, GMR (Active/Placebo)","[2]; Cycle 2, 1.5 μg/kg",0.9
same,"Minimum Platelet Counts, Geometric Mean","[2]; Cycle 2, 1.5 μg/kg",76170 µL⁻¹
same,"Maximum Platelet Counts, GMR (Active/Placebo)","[2]; Cycle 2, 2.25 μg/kg",1.3
same,"Maximum Platelet Counts, Geometric Mean","[2]; Cycle 2, 2.25 μg/kg",401870 µL⁻¹
same,"Minimum Platelet Counts, GMR (Active/Placebo)","[2]; Cycle 2, 2.25 μg/kg",2.2
same,"Minimum Platelet Counts, Geometric Mean","[2]; Cycle 2, 2.25 μg/kg",177540 µL⁻¹
same,"Maximum Platelet Counts, GMR (Active/Placebo)","[2]; Cycle 2, 3.0 μg/kg",1.4
same,"Maximum Platelet Counts, Geometric Mean","[2]; Cycle 2, 3.0 μg/kg",434100 µL⁻¹
same,"Minimum Platelet Counts, GMR (Active/Placebo)","[2]; Cycle 2, 3.0 μg/kg",2.2
same,"Minimum Platelet Counts, Geometric Mean","[2]; Cycle 2, 3.0 μg/kg",179930 µL⁻¹
same,"Change From Baseline in Hemoglobin, Difference of LS Mean (SE) vs Placebo","[2]; Day 42, 1.5 μg/kg",0.54 g/dL
same,"Change From Baseline in Hemoglobin, LS Mean (SE)","[2]; Day 42, 1.5 μg/kg",−1.63 (0.50) g/dL
same,"Change From Baseline in Hemoglobin, Difference of LS Mean (SE) vs Placebo","[2]; Day 42, 2.25 μg/kg",0.57 g/dL
same,"Change From Baseline in Hemoglobin, LS Mean (SE)","[2]; Day 42, 2.25 μg/kg",−1.60 (0.42) g/dL
same,"Change From Baseline in Hemoglobin, Difference of LS Mean (SE) vs Placebo","[2]; Day 42, 3.0 μg/kg",1.00 g/dL
same,"Change From Baseline in Hemoglobin, LS Mean (SE)","[2]; Day 42, 3.0 μg/kg",−1.16 (0.47) g/dL
same,decrease of mean Hb concentration from baseline,"[2]; Day 42, 3.0-μg/kg group",1.16 g/dL
same,"Change From Baseline in Hemoglobin, Difference of LS Mean (SE) vs Placebo","[2]; Day 63, 1.5 μg/kg",-0.75 g/dL
same,"Change From Baseline in Hemoglobin, LS Mean (SE)","[2]; Day 63, 1.5 μg/kg",−2.98 (0.70) g/dL
same,"Change From Baseline in Hemoglobin, Difference of LS Mean (SE) vs Placebo","[2]; Day 63, 2.25 μg/kg",0.68 g/dL
same,"Change From Baseline in Hemoglobin, LS Mean (SE)","[2]; Day 63, 2.25 μg/kg",−1.55 (0.61) g/dL
same,"Change From Baseline in Hemoglobin, Difference of LS Mean (SE) vs Placebo","[2]; Day 63, 3.0 μg/kg",0.79 g/dL
same,"Change From Baseline in Hemoglobin, LS Mean (SE)","[2]; Day 63, 3.0 μg/kg",−1.44 (0.61) g/dL
same,"Change From Baseline in Hemoglobin, Difference of LS Mean (SE) vs Placebo","[2]; Day 84, 1.5 μg/kg",0.05 g/dL
same,"Change From Baseline in Hemoglobin, LS Mean (SE)","[2]; Day 84, 1.5 μg/kg",−1.88 (0.59) g/dL
same,"Change From Baseline in Hemoglobin, Difference of LS Mean (SE) vs Placebo","[2]; Day 84, 2.25 μg/kg",0.03 g/dL
same,"Change From Baseline in Hemoglobin, LS Mean (SE)","[2]; Day 84, 2.25 μg/kg",−1.90 (0.55) g/dL
same,"Change From Baseline in Hemoglobin, Difference of LS Mean (SE) vs Placebo","[2]; Day 84, 3.0 μg/kg",1.13 g/dL
same,"Change From Baseline in Hemoglobin, LS Mean (SE)","[2]; Day 84, 3.0 μg/kg",−0.80 (0.59) g/dL
same,Effects,"[2]; Humans, Phase 1b study, whole wrapped cell: Protection against thrombocytopenia and anemia",Protection against
same,day of mean peak platelet counts,"[2]; lower doses (1.5, 2.25 μg/kg), both cycles",21 days
same,"transient platelet increase, times the baseline","[2]; two subjects at 3.0 μg/kg, first cycle (stopping criteria)",more than 3 times the baseline
same,DRF value,"[3]; 1 mg/kg 24 h prior to irradiation, 95% CI 1.16-2.54",1.42
same,LD50 value (radiation dose) for RWJ-800088 treated animals,"[3]; 1 mg/kg 24 h prior to irradiation, LD50/30",12.64 Gy
same,# Surviving (6 months),[3]; [4],10/10
same,# Surviving (12 months),[3]; [4],5/5
same,# Surviving (30 days),[3]; [4],24/24
same,# Surviving (6 months),[3]; [5],10/10
same,# Surviving (12 months),[3]; [5],5/5
same,# Surviving (30 days),[3]; [5],22/24
same,# Surviving (12 months),[3]; [6],0/3
same,# Surviving (30 days),[3]; [6],11/24
same,# Surviving (6 months),"[3]; Group 12, 12.5 Gy, two animals were added from 12 Gy",7/10
